In the CombiSolv-Exp solvation set (Vermeire and Green 2021):
Each block holds one molecule with its values, some of them ahead of it.

Experiment: solvent given as SMILES
[1] = in CCCCCCCCC=CCCCCCCCC(=O)OCC(COC(=O)CCCCCCCC=CCCCCCCCC)OC(=O)CCCCCCCC=CCCCCCCCC

Compound: Cc1c[nH]cn1
- solvation free energy, 298 K (in O): -10.3 kcal/mol

- solvation free energy, 298 K (in O): -4.01 kcal/mol
Compound: Clc1cccnc1

Compound: Cl
- solvation free energy, 298 K (in C=CCCCCCCCCCCCCCC): -0.82 kcal/mol
- solvation free energy, 298 K (in ClC(Cl)(Cl)Cl): -0.86 kcal/mol

- solvation free energy, 298 K (in CCCC): -1.23 kcal/mol
- solvation free energy, 298 K (in CCCCCC): -1.19 kcal/mol
- solvation free energy, 298 K (in CCCCCCCC): -1.11 kcal/mol
- solvation free energy, 298 K (in CCCCCCCCCC): -1.09 kcal/mol
Compound: Br

- solvation free energy, 298 K (in O): -0.99 kcal/mol
Compound: C1=CC=CCC=C1

Compound: CCOP(=O)(OCC)OCC
- solvation free energy, 298 K (in O): -7.5 kcal/mol

- solvation free energy, 298 K (in O): -2.53 kcal/mol
Compound: C=C(C)C(=O)OC

Compound: CC(C)(c1ccc(O)cc1)c1ccc(O)cc1
- solvation free energy, 298 K (in CCCCCCC): -13 kcal/mol
- solvation free energy, 298 K (in CCCCCCCC): -12.9 kcal/mol
- solvation free energy, 298 K (in CCCCCCCCCC): -12.8 kcal/mol
- solvation free energy, 298 K (in Cc1ccc(C)cc1): -15.5 kcal/mol
- solvation free energy, 298 K (in Cc1cccc(C)c1): -15.5 kcal/mol
- solvation free energy, 298 K (in Cc1ccccc1C): -15.6 kcal/mol
- solvation free energy, 298 K (in O): -14.4 kcal/mol

- solvation free energy, 298 K (in O): -2.59 kcal/mol
Compound: CC(=O)OC1CC(C)CCC1C(C)C (centres undefined)

- solvation free energy, 298 K (in CCCCCCCCCCCCCCCC): -3.29 kcal/mol
- solvation free energy, 298 K (in CCCCCCCCO): -3.64 kcal/mol
- solvation free energy, 298 K (in O): -2.51 kcal/mol
- solvation free energy, 298 K (in [2H]O[2H]): -2.55 kcal/mol
Compound: CCCOC=O

- solvation free energy, 298 K (in CC(C)CC(C)(C)C): -6.27 kcal/mol
- solvation free energy, 298 K (in CCCCCC): -6.67 kcal/mol
- solvation free energy, 298 K (in O): -6.12 kcal/mol
Compound: Cc1cccc(O)c1C

Compound: CCCCCCCCCCCCCCCCCCCCCC
- solvation free energy, 298 K (in CC(=O)N(C)C): -15 kcal/mol
- solvation free energy, 298 K (in CC(C)(C)O): -13.3 kcal/mol
- solvation free energy, 298 K (in CCC(C)=O): -13.6 kcal/mol
- solvation free energy, 298 K [1]: -13.4 kcal/mol
- solvation free energy, 298 K (in CCCCOC(C)=O): -14.1 kcal/mol
- solvation free energy, 298 K (in CCOC(C)=O): -13.7 kcal/mol
- solvation free energy, 298 K (in CN(C)C=O): -15 kcal/mol
- solvation free energy, 298 K (in COC(C)(C)C): -14.9 kcal/mol
- solvation free energy, 298 K (in COC(C)=O): -13 kcal/mol
- solvation free energy, 298 K (in O): 4.87 kcal/mol

- solvation free energy, 298 K (in O): 0.19 kcal/mol
Compound: CC(C)Cc1ccccc1

- solvation free energy, 298 K (in O): -3.9 kcal/mol
Compound: C=C(C)C1CC=C(C)C(OC(=O)CCC)C1 (centres undefined)

Compound: CCC1(c2ccccc2)C(=O)NC(=O)NC1=O
- solvation free energy, 298 K (in O): -15.4 kcal/mol

Compound: Oc1ccc2ccccc2c1
- solvation free energy, 298 K (in Brc1ccccc1): -10.4 kcal/mol
- solvation free energy, 298 K (in CC(C)CC(C)(C)C): -8.21 kcal/mol
- solvation free energy, 298 K (in CCCCCC): -8.46 kcal/mol
- solvation free energy, 298 K (in CCCCCCC): -8.53 kcal/mol
- solvation free energy, 298 K (in CCCCCCCC): -8.63 kcal/mol
- solvation free energy, 298 K (in CCCCCCCCCC): -8.61 kcal/mol
- solvation free energy, 298 K (in ClC(Cl)(Cl)Cl): -9.45 kcal/mol
- solvation free energy, 298 K (in ClC(Cl)Cl): -10.5 kcal/mol
- solvation free energy, 298 K (in Clc1ccccc1): -10.3 kcal/mol
- solvation free energy, 298 K (in O): -8.12 kcal/mol

Compound: C=COC(C)=O
- solvation free energy, 298 K (in CC(C)=O): -4.46 kcal/mol
- solvation free energy, 298 K (in CCN(CC)C(C)=O): -4.2 kcal/mol
- solvation free energy, 298 K (in CCNC(C)=O): -3.83 kcal/mol
- solvation free energy, 298 K (in CCNC=O): -3.92 kcal/mol
- solvation free energy, 298 K (in CN1CCCC1=O): -4.16 kcal/mol
- solvation free energy, 298 K (in O): -2.67 kcal/mol
- solvation free energy, 298 K (in O=CN1CCOCC1): -3.98 kcal/mol

- solvation free energy, 298 K (in O): -4.3 kcal/mol
Compound: CCCCCC(=O)CC(C)=O

Compound: Oc1ccccc1I
- solvation free energy, 298 K (in O): -6.21 kcal/mol

Compound: CC(C)=O
- solvation free energy, 298 K (in Brc1cccc2ccccc12): -3.32 kcal/mol
- solvation free energy, 298 K (in C1CCOC1): -3.89 kcal/mol
- solvation free energy, 298 K (in C1COCCO1): -3.87 kcal/mol
- solvation free energy, 298 K (in CC#N): -4.32 kcal/mol
- solvation free energy, 298 K (in CC(=O)N(C)C): -3.95 kcal/mol
- solvation free energy, 298 K (in CC(=O)OCc1ccccc1): -3.69 kcal/mol
- solvation free energy, 298 K (in CC(C)CC(C)(C)C): -2.44 kcal/mol
- solvation free energy, 298 K (in CC(C)CCCC(C)CCCC(C)CCCCC(C)CCCC(C)CCCC(C)C): -2.37 kcal/mol
- solvation free energy, 298 K (in CC(C)O): -3.36 kcal/mol
- solvation free energy, 298 K (in CC=O): -4.07 kcal/mol
- solvation free energy, 298 K (in CCC(C)=O): -3.98 kcal/mol
- solvation free energy, 298 K (in CCCCCC): -2.68 kcal/mol
- solvation free energy, 298 K (in CCCCCCC): -2.57 kcal/mol
- solvation free energy, 298 K (in CCCCCCCC): -2.53 kcal/mol
- solvation free energy, 298 K [1]: -3.07 kcal/mol
- solvation free energy, 298 K (in CCCCCCCCCC): -2.46 kcal/mol
- solvation free energy, 298 K (in CCCCCCCCCCCCCCCC): -2.3 kcal/mol
- solvation free energy, 298 K (in CCCCCCCCO): -3.14 kcal/mol
- solvation free energy, 298 K (in CCCCCO): -3.4 kcal/mol
- solvation free energy, 298 K (in CCCCCl): -3.62 kcal/mol
- solvation free energy, 298 K (in CCCCN(C=O)CCCC): -3.55 kcal/mol
- solvation free energy, 298 K (in CCCCO): -3.51 kcal/mol
- solvation free energy, 298 K (in CCCCOCCCC): -3.04 kcal/mol
- solvation free energy, 298 K (in CCN1CCCC1=O): -3.77 kcal/mol
- solvation free energy, 298 K (in CCN(CC)C(C)=O): -3.82 kcal/mol
- solvation free energy, 298 K (in CCNC(C)=O): -3.56 kcal/mol
- solvation free energy, 298 K (in CCNC=O): -3.72 kcal/mol
- solvation free energy, 298 K (in CCO): -3.78 kcal/mol
- solvation free energy, 298 K (in CCOC(=O)c1ccccc1C(=O)OCC): -3.53 kcal/mol
- solvation free energy, 298 K (in CCOC(C)=O): -3.9 kcal/mol
- solvation free energy, 298 K (in CCOCC): -3.51 kcal/mol
- solvation free energy, 298 K (in CCOP(=O)(OCC)OCC): -3.64 kcal/mol
- solvation free energy, 298 K (in CI): -3.91 kcal/mol
- solvation free energy, 298 K (in CN1CCCC1=O): -3.94 kcal/mol
- solvation free energy, 298 K (in CN1CCCCC1=O): -3.82 kcal/mol
- solvation free energy, 298 K (in CN1CCN(C)C1=O): -3.61 kcal/mol
- solvation free energy, 298 K (in CN(C)C=O): -4.02 kcal/mol
- solvation free energy, 298 K (in CNC(C)=O): -3.67 kcal/mol
- solvation free energy, 298 K (in CNC=O): -3.82 kcal/mol
- solvation free energy, 298 K (in CO): -4.05 kcal/mol
- solvation free energy, 298 K (in COC(C)=O): -4.02 kcal/mol
- solvation free energy, 298 K (in COP(=O)(OC)OC): -3.97 kcal/mol
- solvation free energy, 298 K (in CS(C)=O): -3.67 kcal/mol
- solvation free energy, 298 K (in Cc1ccc(C)cc1): -3.39 kcal/mol
- solvation free energy, 298 K (in Cc1cccc(C)c1): -3.4 kcal/mol
- solvation free energy, 298 K (in Cc1ccccc1C): -3.36 kcal/mol
- solvation free energy, 298 K (in ClC(Cl)(Cl)Cl): -3.25 kcal/mol
- solvation free energy, 298 K (in ClC(Cl)Cl): -4.67 kcal/mol
- solvation free energy, 298 K (in ClCCCl): -4.27 kcal/mol
- solvation free energy, 298 K (in ClCCl): -4.62 kcal/mol
- solvation free energy, 298 K (in Clc1ccccc1): -3.63 kcal/mol
- solvation free energy, 298 K (in N#CCCOCCC#N): -3.86 kcal/mol
- solvation free energy, 298 K (in NC=O): -3.77 kcal/mol
- solvation free energy, 298 K (in O): -3.84 kcal/mol
- solvation free energy, 298 K (in O=C1CCCCC1): -3.8 kcal/mol
- solvation free energy, 298 K (in O=CN1CCOCC1): -3.66 kcal/mol
- solvation free energy, 298 K (in OCCOCCO): -3.32 kcal/mol
- solvation free energy, 298 K (in S=C=S): -3.39 kcal/mol
- solvation free energy, 298 K (in [2H]O[2H]): -3.82 kcal/mol
- solvation free energy, 298 K (in c1ccc2ncccc2c1): -3.62 kcal/mol
- solvation free energy, 298 K (in c1ccccc1): -3.79 kcal/mol
